Test results: patent publication US20240398777A1, “METHOD OF TREATING SYMPTOMS OF PRADER-WILLI SYNDROME” (HARMONY BIOSCIENCES, LLC, priority 2023, published 2024)

Experiments:
Type in all cases: in vivo, human
[1] = test system: excessive daytime sleepiness (EDS) in subjects with PWS; assay: Phase 2 randomized placebo-controlled study: ESS-CHAD (parent/caregiver version)
Procedure: (§1) A study was carried out to evaluate the efficacy and safety of pitolisant for the treatment of EDS in subjects with PWS. This was a phase 2, randomized, placebo-controlled, proof-of-concept study. Children (aged 6 to <12 years), adolescents (aged 12 to <18 years), and adults (aged 18-65 years) with a confirmed diagnosis of PWS were randomly assigned to receive low-dose pitolisant (8.9 mg in children, 13.35 mg in adolescents, and 17.8 mg in adults) or high dose pitolisant (17.8 mg in children, 26.7 mg in adolescents, and 35.6 mg in adults), or placebo (see FIG. 1). All doses are expressed in terms of pitolisant freebase.
(§2) The 11-week double-blind treatment period consisted of a 3-week titration phase and an 8-week stable-dose phase.
The primary efficacy endpoint was the change from baseline to Week 11 in total score for the parent/caregiver version of the Epworth Sleepiness Scale for Children and Adolescents (ESS-CHAD), which is a validated measurement for sleep propensity. (See Janssen K C, et al. Sleep Med. 2017; 33:30-35; see also Patel V P, et al. J. Clin. Sleep Med. 2022; 18 (2): 485-496). A separate analysis was treatment response defined as ESS-CHAD score reduction of ≥3 points from baseline or Week 11 score of ≤10.

[2] = test system: EDS severity in subjects with PWS; assay: Phase 2 study: Caregiver Global Impression of Severity (CaGI-S) for EDS; conditions: Week 11
Procedure: as §1, §2
(§3) Secondary/exploratory endpoints included change from baseline in Caregiver Global Impression of Severity (CaGI-S) for EDS, behavioral disturbance (Aberrant Behavior Checklist-2 [ABC-2]), and hyperphagia (Hyperphagia Questionnaire for Clinical Trials [HQ-CT] in conjunction with the Food Safe Zone Questionnaire [FSZQ]). The primary time frame of interest was from baseline to Week 11.

[3] = test system: behavioral problems in subjects with PWS; assay: Phase 2 study: Aberrant Behavior Checklist-2 (ABC-2)
Procedure: as §1, §2, §3
The ABC-2 is a widely used and validated questionnaire that can assess changes in behavioral problems, and is particularly suitable for assessing behavioral changes in subjects with intellectual and developmental disabilities. The ABC-2 questions are subdivided into five domains (irritability, social withdrawal, hyperactivity/noncompliance, inappropriate speech, and stereotypic behavior). Generally, a reduction of 2 or more points in a domain of the ABC-2 is considered clinically meaningful. ABC-2 was used in this trial to determine if pitolisant improved or reduced behavioral problems experienced by subjects living with PWS.

[4] = test system: hyperphagia in subjects with PWS; assay: Phase 2 study: Hyperphagia Questionnaire for Clinical Trials (HQ-CT); conditions: Week 11; children (6 to <12 years) and adults (18 to 65 years)
Procedure: as §1, §2, §3

patients with PWS = assay: Phase 2 study: treatment-emergent adverse events; conditions: for Treatment-related TEAEs: possibly, probably, or definitely related to study drug
Procedure: as §1, §2

[5] = adolescents (12 to <18 years), higher-dose, n = 6
[6] = adolescents (12 to <18 years), lower-dose, n = 4
[7] = adults (18 to 65 years), higher-dose, n = 5
[8] = adults (18 to 65 years), lower-dose, n = 3
[9] = all patient groups, high dose pitolisant, n = 22
[10] = all patient groups, low dose pitolisant, n = 18
[11] = pitolisant-treated patients (doses pooled)

For `Clc1ccc(CCCOCCCN2CCCCC2)cc1` [pitolisant], the “ESS-CHAD (Parent/Caregiver Version) mean change from baseline at Week 11” value ([1]; 6 to <12 years, high-dose pitolisant (17.8 mg), n = 11) was −5.5 points, the “ESS-CHAD (Parent/Caregiver Version) mean change from baseline at Week 11” value ([1]; 6 to <12 years, low-dose pitolisant (8.9 mg), n = 12) was −3.7 points and the “ESS-CHAD (Parent/Caregiver Version) mean change from baseline at Week 11” value ([1]; 12 to <18 years, high-dose pitolisant (26.7 mg), n = 6) was −4.2 points. For the same compound, the “ESS-CHAD (Parent/Caregiver Version) mean change from baseline at Week 11” value ([1]; 12 to <18 years, low-dose pitolisant (13.35 mg), n = 4) was −4.5 points, the “ESS-CHAD (Parent/Caregiver Version) mean change from baseline at Week 11” value ([1]; 18 to 65 years, high-dose pitolisant (35.6 mg), n = 5) was −4.4 points and the “ESS-CHAD (Parent/Caregiver Version) mean change from baseline at Week 11” value ([1]; 18 to 65 years, low-dose pitolisant (17.8 mg), n = 3) was −5.0 points. For the same compound, the “mean improvement from baseline in ESS-CHAD score versus placebo” value ([1]; overall patient population, end of treatment, both dose groups) was “greater for both pitolisant dose groups compared with the placebo group”, the “ESS-CHAD response rate (score reduction of ≥3 points from baseline or score of ≤10 at Week 11) versus placebo” value ([1]; study completers, Week 11, driven primarily by high-dose group) was “higher for pitolisant versus placebo” and the “reduction in CaGI-S score versus placebo” value ([2]; children (6 to <12 years) and adults) was “greater for pitolisant compared with placebo”. The “CaGI-S mean (SD) change” value ([2]; higher-dose pitolisant group) was −1.1 (1.1), the “CaGI-S mean (SD) change” value ([2]; lower-dose pitolisant group) was −1.0 (1.2) and the “mean reduction on all ABC-2 domains versus placebo” value ([3]; Week 11, children (6 to <12 years), higher-dose pitolisant) was “greater for higher-dose pitolisant compared with placebo”. For the same compound, the “ABC-2 Hyperactivity/noncompliance mean change from baseline to Week 11” value [3, 5] was −3.8, the “ABC-2 Inappropriate speech mean change from baseline to Week 11” value (shortened to “ABC-2 Inappropriate speech mean change”) [3, 5] was −1.7 and the “ABC-2 Irritability mean change from baseline to Week 11” value (“ABC-2 Irritability mean change” below) [3, 5] was −5.0. The “ABC-2 Social withdrawal mean change from baseline to Week 11” value (from here on “ABC-2 Social withdrawal mean change”) [3, 5] was −3.7, the “ABC-2 Stereotypic behavior mean change from baseline to Week 11” value (“ABC-2 Stereotypic behavior mean change” below) [3, 5] was −0.5 and the “ABC-2 Hyperactivity/noncompliance mean change from baseline to Week 11” value [3, 6] was 0.0. The “ABC-2 Inappropriate speech mean change” value [3, 6] was −0.8, the “ABC-2 Irritability mean change” value [3, 6] was −4.8 and the “ABC-2 Social withdrawal mean change” value [3, 6] was −3.3. The “ABC-2 Stereotypic behavior mean change” value [3, 6] was 0.3, the “ABC-2 Hyperactivity/noncompliance mean change from baseline to Week 11” value [3, 7] was −5.4 and the “ABC-2 Inappropriate speech mean change” value [3, 7] was −2.2. The “ABC-2 Irritability mean change” value [3, 7] was −2.8, the “ABC-2 Social withdrawal mean change” value [3, 7] was −2.4 and the “ABC-2 Stereotypic behavior mean change” value [3, 7] was −2.6. The “ABC-2 Hyperactivity/noncompliance mean change from baseline to Week 11” value [3, 8] was 1.0, the “ABC-2 Inappropriate speech mean change” value [3, 8] was 0.7 and the “ABC-2 Irritability mean change” value [3, 8] was −3.0. The “ABC-2 Social withdrawal mean change” value [3, 8] was −1.0, the “ABC-2 Stereotypic behavior mean change” value [3, 8] was −0.3 and the “ABC-2 Hyperactivity/noncompliance mean change from baseline to Week 11” value [3, 9] was −4.6. For the same compound, the “ABC-2 Inappropriate speech mean change” value [3, 9] was −2.0, the “ABC-2 Irritability mean change” value [3, 9] was −4.8 and the “ABC-2 Social withdrawal mean change” value [3, 9] was −4.0. For the same compound, the “ABC-2 Stereotypic behavior mean change” value [3, 9] was −1.2, the “ABC-2 Hyperactivity/noncompliance mean change from baseline to Week 11” value [3, 10] was −0.4 and the “ABC-2 Inappropriate speech mean change” value [3, 10] was −0.3. For the same compound, the “ABC-2 Irritability mean change” value [3, 10] was −3.4, the “ABC-2 Social withdrawal mean change” value [3, 10] was −1.9 and the “ABC-2 Stereotypic behavior mean change” value [3, 10] was −0.1. The “reductions in three ABC-2 domains including irritability and hyperactivity/noncompliance” value ([3]; high dose group) was “more than 4 points”, the “reduction in HQ-CT score versus placebo” value [4] was “greater for pitolisant compared with placebo” and the Anxiety (patients with PWS; high-dose pitolisant, n = 22) was 1 (4.5) n (%). The “Any TEAE” value (patients with PWS; high-dose pitolisant, n = 22) was 11 (50.0) n (%), the Irritability (patients with PWS; high-dose pitolisant, n = 22) was 2 (9.1) n (%) and the “Most common TEAEs” value (patients with PWS; high-dose pitolisant, n = 22) was 1 (4.5) n (%). The “Serious TEAEs” value (patients with PWS; high-dose pitolisant, n = 22) was 0 n (%), the “Severe TEAEs” value (patients with PWS; high-dose pitolisant, n = 22) was 0 n (%) and the “Treatment-related TEAEs” value (patients with PWS; high-dose pitolisant, n = 22) was 4 (18.2) n (%). The Anxiety (patients with PWS; low-dose pitolisant, n = 20) was 4 (20.0) n (%), the “Any TEAE” value (patients with PWS; low-dose pitolisant, n = 20) was 13 (65.0) n (%) and the Irritability (patients with PWS; low-dose pitolisant, n = 20) was 3 (15.0) n (%). The “Most common TEAEs” value (patients with PWS; low-dose pitolisant, n = 20) was 4 (20.0) n (%), the “Serious TEAEs” value (patients with PWS; low-dose pitolisant, n = 20) was 0 n (%) and the “Severe TEAEs” value (patients with PWS; low-dose pitolisant, n = 20) was 0 n (%). The “Treatment-related TEAEs” value (patients with PWS; low-dose pitolisant, n = 20) was 7 (35.0) n (%), the “safety and tolerability versus known safety profile” value (patients with PWS; patients with PWS) was “no new safety signals were observed” and the “adverse event anxiety, incidence” value (patients with PWS; [11]) was 13.0%. The “adverse event irritability, incidence” value (patients with PWS; [11]) was 17.4%.
